The values below come from publication PMC11036874, “In vitro characterization of [^125I]HY-3-24, a selective ligand for the dopamine D3 receptor” (Frontiers in Neuroscience, 2024).

For series [1], the target named is hD3R. Also noted: method as in Kim et al., 2023. Particulars: ref Kim et al., 2023; cited from earlier work.
Series [2] addresses hD2R. Also noted: method as in Kim et al., 2023. Particulars: ref Kim et al., 2023; cited from earlier work.
Series [3] concerns the target T1, D3R (Rattus norvegicus, UniProt P19020).
T1 construct: The ventral striatum was isolated by dissection on ice; tissue Innovative research, Inc; host or cells: Sprague–Dawley rat brain: ventral striatal homogenates; frozen brain sections
The series is described as follows: Competition binding study of [125I]HY-3-24 in rat ventral striatal membranes. The settings on record: for fold lower affinity/potency for displacing [125I]HY-3-24 relative to eticlopride: rat ventral striatum. The method, then:
(§1) Frozen rat brains (Sprague–Dawley rat, Male, 6–8 weeks old) were obtained from Innovative research, Inc. (Novi, Michigan, United States). The ventral striatum was isolated by dissection on ice. Cold homogenization buffer (HB, 20 mM Tris–HCl, 5 mM MgCl2, 1 mM EDTA, pH7.5) was added and the tissue homogenized by mortar and pestle on ice. Homogenized tissue was centrifuged at 10,000 × g, 4°C for 30 min. Supernatant was removed and pellet was mixed with cold HB buffer by vortex. This process was repeated two times to get rat ventral striatal homogenates; and protein amount was determined using a BCA protein assay kit. Homogenized tissue homogenates were stored at −80°C until use.
10 μM of (+)-butaclamol was used for determination of non-specific binding. The final reaction volume was 200 μL and the assay mixture was incubated at RT for 60 min. […] The filter was washed with cold buffer (3 times) and counted by gamma counter. The value of Ki was calculated using nonlinear regression analysis by PRISM 9 and the results was presented mean ± SD by three individual experiments.

Series [4] addresses T1, D3R. Briefly: In vitro autoradiography, rat brain sections. Type of series: binding. On the procedure:
(§2) Regional brain distribution of [^125I]HY-3-24 binding was determined by in vitro autoradiography using Sprague–Dawley rat and non-human primate brains. A Cryotome (Leica Biosystems, Germany) was used for sectioning frozen brains by coronal and/or sagittal direction, and the thickness of tissue was 10–20 μm. Sectioned slides were stored at −80°C until use. The adjacent brain slides were warmed to RT for 20 min, the slides were incubated with cold reaction buffer (50 mM Tris–HCl, 150 mM NaCl, 1 mM EDTA, pH 7.5) at RT for 10 min, and the buffer was discarded. The slides were then incubated with […] of [^125I]HY-3-24 at RT for 1 h. For non-specific binding, 2 μM of (+)-butaclamol was used. After incubation, the slides were washed with cold buffer (three times) for 2 min, then air dried at RT for 10 min. Radiolabeled brain tissues were exposed to BAS imaging plate (Fujifilm, Tokyo, Japan) for 3 days, and the result was digitized by Typhoon FLA 7000 (GE Healthcare, Illinois, United States) and analyzed by Multi Gauge V3.0. For blocking studies comparing (+)-butaclamol and raclopride, brain slides were initially pretreated with blocking agent (50 nM) for 1 h. prior to the addition of the radioligand (0.3 nM).

Series [5] can be described thus: Distribution coefficient (LogD7.4), shake-flask. It counts as physicochemical. The settings on record: n-octanol / 0.01 M phosphate buffer pH 7.4, shake-flask, quintuplicate. The method, then:
In a separatory funnel, 10 mL of n-octanol and 20 mL of 0.01 M phosphate buffer (pH 7.4) solution were placed and 5 μL of [^125I]HY-3-24 (700 kBq) was added. The mixture was vigorously shaken for 1 min followed by standing for 20 min to completely separate the layers. Five 1 mL of aliquots were taken from each phase and the radioactivity of each fraction was measured by a Wizard2 Automatic Gamma Counter. LogD7.4 was measured in quintuplicate and calculated as the logarithm of the ratio of radioactivity in organic phase to that in water phase.

In series [6] the target is T1, D3R. The series is described as follows: Saturation/equilibrium binding of [125I]HY-3-24 on rat ventral striatum. The method, then: as §1
To confirm saturation time of [^125I]HY-3-24 with prepared membrane, [^125I]HY-3-24 (~0.3 nM) was mixed with 100 μg of membrane and incubated at RT up to 2 h. [^125I]HY-3-24 bound protein was collected by fast filtration methods (CF/C filter, Brandel Inc., Maryland, United States) and counted using gamma counter (PerkinElmer, Massachusetts, United States).
For saturation binding study, [^125I]HY-3-24 (0.001–1.6 nM concentration range) was incubated with 100 μg/100 μL of homogenized protein at RT for 60 min. Non-specific binding was defined the presence of 10 μM (+)-butaclamol, and total reaction volume was 200 μL. The reaction was finished by adding cold buffer (10 mM Tris–HCl, 150 mM NaCl, pH 7.5), and [^125I]HY-3-24 bound protein was filtered by 24-well harvester (Brandel Inc., Maryland, United States) through CF/C filter soaked with 1% PEI, and washed three times with 4 mL cold buffer. The collected filter was counted by gamma counter and data were analyzed by PRISM 9. The values of Bmax and Kd were obtained by three individual experiments.

In series [7] the target is T2, D3R (Macaca mulatta, UniProt F6U709).
T2 construct: in vitro autoradiography using Sprague–Dawley rat and non-human primate brains; from tissue; host or cells: non-human primate brain sections
T2 sequence (F6U709 1-400): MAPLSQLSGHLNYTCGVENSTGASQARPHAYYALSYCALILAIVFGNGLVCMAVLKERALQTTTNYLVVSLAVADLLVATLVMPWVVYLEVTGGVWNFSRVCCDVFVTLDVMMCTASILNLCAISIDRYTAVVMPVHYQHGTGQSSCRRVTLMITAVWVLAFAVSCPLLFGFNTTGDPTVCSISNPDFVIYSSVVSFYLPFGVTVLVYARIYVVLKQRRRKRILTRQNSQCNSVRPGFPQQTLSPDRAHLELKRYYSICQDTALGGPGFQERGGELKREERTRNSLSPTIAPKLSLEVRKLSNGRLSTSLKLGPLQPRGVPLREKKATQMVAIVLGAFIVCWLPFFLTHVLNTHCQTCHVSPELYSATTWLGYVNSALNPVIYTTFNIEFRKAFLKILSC
Briefly: In vitro autoradiography, non-human primate brain sections. Type of series: binding. The settings on record: rhesus monkey brain sections. The method, then: as §2

For series [8], the target named is D2 receptors. Also noted: method as in Kulagowski et al., 1996. The settings on record: ref Kulagowski et al., 1996; read-out: Ki for displacing [3H]spiperone to D2 receptors; cited from earlier work.
The target of series [9] is T1, D3R. Briefly: D3R and D2R blocking studies of [125I]HY-3-24 in rat striatal homogenates. It counts as binding. The settings on record: blocker at 2.4 nM, rat striatal membranes, RT 2 h. The method, then: For the D3R and D2R blocking studies, [^125I]HY-3-24 (0.3 nM) was mixed with 100 μg of protein and incubated at RT for 2 h in the presence or absence of 30 nM cold HY-3-24, 100 nM SB-277-011A, 10 nM SB-277-011A, or 2.4 nM L-741,626. [^125I]HY-3-24 bound protein was collected by fast filtration methods (GF/C filter soaked in 1% PEI, Brandel Inc., Maryland, United States) and counted using gamma counter (PerkinElmer, Massachusetts, United States).

Series [10] addresses hD3R. Also noted: method as in Yang et al., 2000. Particulars: ref Yang et al., 2000; cited from earlier work.
Series [11] addresses hD2R. More on the design: method as in Yang et al., 2000. The settings on record: ref Yang et al., 2000; cited from earlier work.
Setting [12] is: rat ventral striatal homogenates, 0.2–0.3 nM [125I]HY-3-24, RT 60 min, mean ± SD of three experiments, read-out: Ki for inhibiting [125I]HY-3-24 binding.
The mark [13] stands for this setting: rat brain coronal sections, ~0.3 nM radioligand.

Read-outs that look alike come from different tables or passages of the source.

T1 sequence (P19020 whole entry): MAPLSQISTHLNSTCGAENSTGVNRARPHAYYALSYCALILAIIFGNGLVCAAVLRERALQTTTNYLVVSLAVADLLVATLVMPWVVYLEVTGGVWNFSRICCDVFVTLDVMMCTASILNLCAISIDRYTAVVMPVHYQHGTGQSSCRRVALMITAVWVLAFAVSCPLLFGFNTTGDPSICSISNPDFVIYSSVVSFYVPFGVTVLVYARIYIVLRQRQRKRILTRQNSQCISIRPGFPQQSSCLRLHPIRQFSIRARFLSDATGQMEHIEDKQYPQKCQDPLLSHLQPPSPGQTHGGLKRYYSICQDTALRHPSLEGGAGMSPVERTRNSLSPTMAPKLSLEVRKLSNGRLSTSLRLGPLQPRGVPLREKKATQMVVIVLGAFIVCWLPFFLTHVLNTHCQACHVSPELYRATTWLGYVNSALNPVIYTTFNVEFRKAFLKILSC

For the compound `CCN(CCCNC(=O)c1ccc(-c2ccncc2)cc1)CCNC(=O)c1cc(Br)cc(OC)c1OC` [compound 6], the Ki (usually a dissociation constant, usually derived from enzyme kinetics or from competition with a known ligand) in [1] is 1.1 ± 0.1 nM; in [2], 107 ± 5 nM.

Turning to `CCc1cc(Cl)c(OC)c(C(=O)NC[C@@H]2CCCN2CC)c1O` [Eticlopride], the inhibition constant (Ki) in series [3] is 0.25 ± 0.02 nM.

Turning to `CN1CCc2cc(Cl)c(O)cc2[C@@H](c2ccccc2)C1` [SCH23390], in series [3] (setting [12]), the Ki was 215 ± 61.7 nM. Besides, in series [3], the “fold lower affinity/potency for displacing [125I]HY-3-24 relative to eticlopride” value is 1,000 fold.

Regarding `CCCN1CCO[C@@H]2c3cc(O)ccc3CC[C@H]21` [(+)-PHNO], in series [3] (setting [12]), the Ki is 1.72 ± 0.46 nM.

For `CCN(CCCNC(=O)c1ccc(-c2ccncc2)cc1)CCNC(=O)c1cc([125I])cc(OC)c1OC` [[^125I]HY-3-24], in [4] (setting [13]), the “binding in NAc including ICjM, and ICj” value is given as “High binding”; the binding in striatum entry is reported as “lower amount of binding”. The “displaceability by (+)-butaclamol and raclopride” value in [4] (rat brain slices, blocking agents 50 nM, radioligand ~0.3 nM) is recorded as “fully displaceable”. Moreover, in [5], the pH-dependent lipophilicity (logD) (commonly lipophilicity at a set pH, counting ionised and neutral species) at 1 min worked out at 2.41 ± 0.01. Moreover, the “percentage of specific binding” value in series [6] (rat ventral striatal membranes) is listed as “over 70%”. The “non-specific binding, of total binding” value in [6] (rat ventral striatal membranes, 10 μM (+)-butaclamol) is “less than 10%”. Also, binding in series [6] (rat ventral striatal membranes, RT 60 min, three experiments) was characterised by a dissociation constant (Kd) of 0.34 ± 0.22 nM. This compound gave a Bmax in [6] (rat ventral striatal membranes, fmol/mg of protein, three experiments) of 38.91 ± 2.39 fmol/mg. In addition, the “time to binding equilibrium” value in series [6] (~0.3 nM radioligand, 100 μg protein, RT, persisted until 2 h) is reported as “about 30 min”. The non-specific binding entry in [7] (blocking with 2 μM (+)-butaclamol) is “low level of non-specific binding”. Further, the “binding in caudate nucleus (Cd), putamen (Pu), NAc, and ICj” value in series [7] (~0.1 nM radioligand) is recorded as “high density”.

For the compound `CCCN1CCO[C@@H]2c3cc(O)ccc3OC[C@H]21` [PD128907], the Ki in [3] (setting [12]) was determined as 7.65 ± 1.15 nM.

In the case of `OC1(c2ccc(Cl)cc2)CCN(Cc2c[nH]c3ccccc23)CC1` [L-741,626], the inhibitory constant (Ki) in series [8] is 2.4 nM. Also, in [9], the “displacement of [125I]HY-3-24 binding” value is listed as “no displacement”.

As for `CCN1CCC[C@H]1CNC(=O)c1c(O)c(Cl)cc(Cl)c1OC` [Raclopride], the Ki in [3] (setting [12]) was 2.51 ± 0.9 nM. Moreover, in series [3], the “fold lower affinity/potency for displacing [125I]HY-3-24 relative to eticlopride” value worked out at 10 fold.

Take `CCN(CC)CCNC(=O)c1cc(Cl)c(N)cc1OC` [Metoclopramide]: the inhibition constant (Ki) in series [10] was 27 ± 3 nM; in series [11], 21 ± 1 nM.
